Series [1] deals with full-length FLAG-tagged B-Raf(V600E) (Homo sapiens (Human), UniProt P15056, V600E). As to the kind of experiment: BRAF V600E enzyme assay (TR-FRET competitive displacement). The format is binding. The procedure, abridged:
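TR-FRET tracer competition: compound (top dose 10 μM, 3-fold, 11 points) incubated 60 min at ambient temperature with FLAG-tagged full-length B-Raf(V600E) (5 nM), Eu anti-FLAG cryptate (0.5 nM) and tracer (50 nM), pH 7.4 HEPES/MgCl2 buffer. 665/615 ratio converted to percent of control; IC50 where fitted curve crosses 50 POC.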

Another series relates to A375 cells. Kind of series: Cellular phospho-ERK inhibition assay in A375 cells. In kind it is cell-based. To be noted: Homo sapiens, A-375, A375 cells (head prints A357), 2 hours treatment, read-out: A357 cell IC50. The method, boiled down:
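In Cell Western detection of phospho-ERK1/2 (Thr202/Tyr204) over GAPDH after 2 h compound exposure (66 pM to 10 μM, 9 points, 0.25% DMSO) of A375 cells in DMEM or H1755 cells in RPMI, both with 10% FBS. Percent of control set by DMSO and 10 μM binimetinib; 4-parameter IC50.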

In the next series the test system is H1755 cells. As to the kind of experiment: Cellular phospho-ERK inhibition assay in H1755 cells. In kind it is cell-based. To be noted: Homo sapiens, NCI-H1755, 2 hours treatment, read-out: H1755 Cell IC50. The method, then:
A375 and H1755 cells were obtained from the American Type Culture Collection (ATCC, Rockville, MD). A375 cells were maintained in DMEM growth medium containing 10% FBS. H1755 cells were maintained in RPMI growth medium containing 10% FBS.
Cells were harvested according to standard protocols, counted and plated onto flat-bottom, 96-well tissue culture plates (Costar #3599) at 2.5×10^4 cells/well for A375 cells and 1.5×10^4 cells/well for H1755 cells in 100 μL/well of growth medium containing 10% FBS. After an overnight incubation at 37° C. with 5% CO2 cells were treated for 2 hours at 37° C., 5% CO2 with compounds prepared as a 9-point, 1:3.33 fold dilution series with final compound concentrations ranging from 66 pM-10 μM and a constant DMSO concentration of 0.25%. Control wells contained either 0.25% DMSO alone (uninhibited control) or 10 μM binimetinib (complete inhibition control). The levels of phosphorylated ERK are determined using an In Cell Western protocol: following compound incubation, growth medium was discarded, and cells were fixed with 0.4% formaldehyde in PBS for 20 minutes at room temperature. Cells were permeabilized with 100% methanol for 10 minutes at room temperature. Plates were washed with PBS containing 0.05% Tween-20 and blocked for 1 hour at room temperature with LI-COR Blocking Buffer (LI-COR Biosciences; Cat #927-40000). Plates were then incubated for 2 hours at room temperature with 50 μL of a 1:400 dilution of anti-phospho-ERK1/2 (Thr202/Tyr204) (Cell Signaling; Cat #9101) and a 1:1000 dilution of anti-GAPDH (Millipore; Cat #MAB374) in LI-COR blocking buffer containing 0.05% Tween-20. Plates were washed with PBS containing […] Tween-20 then incubated at room temperature for 1 hour with 50 μL of a 1:1000 dilution of anti-rabbit AlexaFluor 680 (Life Technologies; Cat #A21109) and a 1:1000 dilution of anti-mouse IRDye 800CW (LI-COR; Cat #926-32210) in LI-COR blocking buffer containing 0.05% Tween-20. Plates were analyzed by reading on an Odyssey CLx infrared scanner. For each well, the phospho-ERK signal was normalized to the GAPDH signal and converted to POC using the following equation:
[formula] • Where: • Xmax Average Uninhibited Controls • Xmin Average Complete Inhibition Controls IC50 values were then calculated using a 4-parameter fit in XLfit software and are provided in Table A1.

A short description of series [2]: MDR1 LLC-PK1 and BCRP MDCKII permeability assay: permeability coefficient (Papp). The format is in vitro ADME. The source says:
(§1) Final organic concentration in the assay was 1%.

The next series concerns the target P-gp (MDR1) (Homo sapiens (Human), UniProt P08183). As to the kind of experiment: MDR1 LLC-PK1 permeability assay: efflux ratio. To be noted: pig. In kind it is in vitro ADME.
Text: as §1

A further series deals with BCRP (Homo sapiens (Human), UniProt Q9UNQ0). As to the kind of experiment: BCRP MDCKII permeability assay: efflux ratio. The format is in vitro ADME. To be noted: dog.
Sequence of BCRP (Q9UNQ0 whole entry): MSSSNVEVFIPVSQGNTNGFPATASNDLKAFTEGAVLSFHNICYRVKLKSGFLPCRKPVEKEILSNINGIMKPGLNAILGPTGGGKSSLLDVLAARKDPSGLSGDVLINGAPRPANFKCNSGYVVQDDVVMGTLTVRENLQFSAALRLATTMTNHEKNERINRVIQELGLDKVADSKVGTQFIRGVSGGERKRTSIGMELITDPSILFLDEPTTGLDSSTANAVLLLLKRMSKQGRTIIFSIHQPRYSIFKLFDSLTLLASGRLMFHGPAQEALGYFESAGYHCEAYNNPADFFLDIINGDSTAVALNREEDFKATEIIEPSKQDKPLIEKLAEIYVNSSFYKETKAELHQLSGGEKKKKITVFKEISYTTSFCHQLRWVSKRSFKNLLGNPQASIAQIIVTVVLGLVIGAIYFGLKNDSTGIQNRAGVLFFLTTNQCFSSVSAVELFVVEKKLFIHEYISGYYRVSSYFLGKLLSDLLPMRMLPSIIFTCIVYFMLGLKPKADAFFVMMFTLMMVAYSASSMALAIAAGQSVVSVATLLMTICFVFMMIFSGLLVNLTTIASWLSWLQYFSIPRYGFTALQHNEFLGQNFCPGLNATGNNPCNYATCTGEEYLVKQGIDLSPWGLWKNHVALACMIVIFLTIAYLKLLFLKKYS
Setting [3] is: averaged IC50, TR-FRET tracer displacement, 60 min.

pIC50: −log10 of the molar value. Where a name gives a salt, the structure may show the parent alone. Read-outs that look alike come from different tables or passages of the source.

Sequence of full-length FLAG-tagged B-Raf(V600E) (P15056 whole entry V600E): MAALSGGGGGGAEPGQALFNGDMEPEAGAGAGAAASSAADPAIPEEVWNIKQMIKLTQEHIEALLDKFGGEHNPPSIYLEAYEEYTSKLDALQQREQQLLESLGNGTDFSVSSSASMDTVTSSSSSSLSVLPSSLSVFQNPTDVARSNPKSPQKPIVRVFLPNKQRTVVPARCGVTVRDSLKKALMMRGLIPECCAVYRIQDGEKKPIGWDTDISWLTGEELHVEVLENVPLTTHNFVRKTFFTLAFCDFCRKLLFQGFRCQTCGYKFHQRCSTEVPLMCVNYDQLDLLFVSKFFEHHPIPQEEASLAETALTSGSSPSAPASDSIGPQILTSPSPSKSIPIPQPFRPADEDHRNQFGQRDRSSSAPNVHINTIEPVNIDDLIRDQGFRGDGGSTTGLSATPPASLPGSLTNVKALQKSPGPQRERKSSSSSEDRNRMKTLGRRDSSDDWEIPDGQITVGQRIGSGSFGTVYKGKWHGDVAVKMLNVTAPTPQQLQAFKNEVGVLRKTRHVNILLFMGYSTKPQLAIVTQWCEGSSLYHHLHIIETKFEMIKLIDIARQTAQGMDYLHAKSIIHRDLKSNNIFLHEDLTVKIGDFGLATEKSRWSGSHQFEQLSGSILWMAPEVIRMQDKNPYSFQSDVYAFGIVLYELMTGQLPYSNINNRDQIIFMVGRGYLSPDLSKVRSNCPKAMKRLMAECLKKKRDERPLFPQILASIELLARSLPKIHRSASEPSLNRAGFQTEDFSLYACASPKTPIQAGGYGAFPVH
Sequence of P-gp (MDR1) (P08183 whole entry, species assumed): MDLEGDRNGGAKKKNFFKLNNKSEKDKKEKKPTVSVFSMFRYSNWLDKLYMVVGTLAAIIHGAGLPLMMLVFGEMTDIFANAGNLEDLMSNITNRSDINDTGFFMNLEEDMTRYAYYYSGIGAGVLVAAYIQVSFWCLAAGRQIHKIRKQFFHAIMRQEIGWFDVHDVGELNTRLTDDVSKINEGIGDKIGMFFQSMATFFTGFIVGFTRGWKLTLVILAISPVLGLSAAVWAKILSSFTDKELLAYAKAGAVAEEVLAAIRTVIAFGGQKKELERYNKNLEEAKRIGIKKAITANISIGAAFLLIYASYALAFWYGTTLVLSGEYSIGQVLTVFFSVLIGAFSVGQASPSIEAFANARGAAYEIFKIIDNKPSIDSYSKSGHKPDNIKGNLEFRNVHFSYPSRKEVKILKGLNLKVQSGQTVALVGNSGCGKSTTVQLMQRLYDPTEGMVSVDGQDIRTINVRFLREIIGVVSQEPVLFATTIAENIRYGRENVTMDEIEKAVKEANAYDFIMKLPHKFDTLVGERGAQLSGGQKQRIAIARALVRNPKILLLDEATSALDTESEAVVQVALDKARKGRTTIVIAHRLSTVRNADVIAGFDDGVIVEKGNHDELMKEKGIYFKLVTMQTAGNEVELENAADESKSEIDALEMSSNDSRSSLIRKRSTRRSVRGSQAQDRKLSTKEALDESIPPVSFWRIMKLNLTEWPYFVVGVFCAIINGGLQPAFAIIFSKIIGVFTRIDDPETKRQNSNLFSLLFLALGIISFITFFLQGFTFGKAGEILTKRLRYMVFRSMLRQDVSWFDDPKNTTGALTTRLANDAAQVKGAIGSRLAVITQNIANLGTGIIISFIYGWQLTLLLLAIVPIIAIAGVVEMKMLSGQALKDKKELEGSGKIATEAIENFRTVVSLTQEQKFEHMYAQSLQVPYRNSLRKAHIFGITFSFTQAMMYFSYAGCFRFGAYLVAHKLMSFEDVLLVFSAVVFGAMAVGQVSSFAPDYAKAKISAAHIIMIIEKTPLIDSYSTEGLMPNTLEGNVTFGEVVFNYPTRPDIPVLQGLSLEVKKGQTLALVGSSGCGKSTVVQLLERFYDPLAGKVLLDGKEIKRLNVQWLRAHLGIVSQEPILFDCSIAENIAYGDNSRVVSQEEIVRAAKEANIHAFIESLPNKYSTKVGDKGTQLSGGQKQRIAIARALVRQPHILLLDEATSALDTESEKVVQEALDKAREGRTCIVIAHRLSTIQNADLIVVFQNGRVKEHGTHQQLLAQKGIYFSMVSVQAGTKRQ

Regarding `CO[C@H]1CN(S(=O)(=O)Nc2cc(F)c(F)c(Nc3ccc4ncn(C)c(=O)c4c3C)c2Cl)C[C@H]1F` (relative stereo) [Example 100, cis-N-(2-chloro-3-((3,5-dimethyl-4-oxo-3,4-dihydroquinazolin-6-yl)amino)-4,5-difluorophenyl)-3-fluoro-4-methoxypyrrolidine-1-sulfonamide], the pIC50 was 8.22 in series [1] (setting [3]), 7.33 with A375 cells and 6.53 in the series with H1755 cells.

In the case of `C=Cc1c(Nc2c(F)ccc(NS(=O)(=O)N3CCCC3)c2Cl)ccc2ncn(C)c(=O)c12` [Example 51, N-(2-chloro-4-fluoro-3-((3-methyl-4-oxo-5-vinyl-3,4-dihydroquinazolin-6-yl)amino)phenyl)pyrrolidine-1-sulfonamide trifluoroacetate], the negative logarithm of the IC50 (pIC50) in series [1] (setting [3]) is 7.11; in the series with A375 cells, 7.24; in the series on H1755 cells, 6.56.

For the molecule `CCc1c(Nc2c(F)ccc(NS(=O)(=O)N3CCCC3)c2Cl)ccc2ncn(C)c(=O)c12` [Example 52, N-(2-chloro-3-((5-ethyl-3-methyl-4-oxo-3,4-dihydroquinazolin-6-yl)amino)-4-fluorophenyl)pyrrolidine-1-sulfonamide trifluoroacetate], the values for the pIC50 (in series [1] (setting [3]); in the series with A375 cells; with H1755 cells) were 6.85, 6.91 and 6.07, respectively.

In the case of `Cn1cnc2ccc(Oc3c(F)ccc(NS(=O)(=O)N4C[C@@H](F)[C@@H](F)C4)c3Cl)c(F)c2c1=O` [Example 64, cis-N-(2-chloro-4-fluoro-3-((5-fluoro-3-methyl-4-oxo-3,4-dihydroquinazolin-6-yl)oxy)phenyl)-3,4-difluoropyrrolidine-1-sulfonamide], the pIC50 in series [1] was 8.70; in the series on A375 cells, 8.15; in the series on H1755 cells, 7.19. Further, in series [2], the Papp at 2 h, 1 µM was determined as 34 ×10⁻⁶ cm/s. Moreover, the efflux ratio at 2 h, 1 µM at P-gp (MDR1) came out at 4.5.

`Cc1c(Nc2c(F)c(F)cc(NS(=O)(=O)N3CC4CC3C4)c2Cl)ccc2ncn(C)c(=O)c12` [Example 101, N-(2-chloro-3-((3,5-dimethyl-4-oxo-3,4-dihydroquinazolin-6-yl)amino)-4,5-difluorophenyl)-2-azabicyclo[2.1.1]hexane-2-sulfonamide]: the pIC50 was 8.52 in series [1] (setting [3]), 7.43 in the series on A375 cells and 6.36 in the series on H1755 cells.

Consider `Cc1c(Nc2c(F)c(F)cc(NS(=O)(=O)N3CC4CC4C3)c2Cl)ccc2ncn(C)c(=O)c12` (stereo not drawn) [Example 102, N-(2-chloro-3-((3,5-dimethyl-4-oxo-3,4-dihydroquinazolin-6-yl)amino)-4,5-difluorophenyl)-3-azabicyclo[3.1.0]hexane-3-sulfonamide], for which the pIC50 was 9.00 in series [1] (setting [3]), 7.14 with A375 cells and 6.15 in the series on H1755 cells.

As to `CO[C@@H]1CCN(S(=O)(=O)Nc2cc(Cl)cc(Nc3ccc4ncn(C)c(=O)c4c3C)c2F)C1` [Example 105, (R)-N-(5-chloro-3-((3,5-dimethyl-4-oxo-3,4-dihydroquinazolin-6-yl)amino)-2-fluorophenyl)-3-methoxypyrrolidine-1-sulfonamide], the pIC50 was 7.82 in series [1] (setting [3]), 6.83 in the series on A375 cells and 6.57 in the series on H1755 cells.

Turning to `COCC1CN(S(=O)(=O)Nc2ccc(F)c(Oc3ccc4ncn(C)c(=O)c4c3Cl)c2Cl)C1` [Example 118, N-(2-chloro-3-((5-chloro-3-methyl-4-oxo-3,4-dihydroquinazolin-6-yl)oxy)-4-fluorophenyl)-3-(methoxymethyl)azetidine-1-sulfonamide], the pIC50 in series [1] (setting [3]) was 8.40; in the series on A375 cells, 8.22; in the series on H1755 cells, 7.39. The molecule also came in with a Papp at 2 h, 1 µM in series [2] of 34 ×10⁻⁶ cm/s. The efflux ratio at 2 h, 1 µM on P-gp (MDR1) was 3.5.

For `COC1CN(S(=O)(=O)Nc2ccc(F)c(Oc3ccc4ncn(C)c(=O)c4c3Cl)c2Cl)C1` [Example 119, N-(2-chloro-3-((5-chloro-3-methyl-4-oxo-3,4-dihydroquinazolin-6-yl)oxy)-4-fluorophenyl)-3-methoxyazetidine-1-sulfonamide], the values for the pIC50 (in series [1] (setting [3]); with A375 cells; in the series with H1755 cells) were 8.22, 8.10 and 7.29, respectively. In series [2], this molecule had an apparent permeability (Papp) at 2 h, 1 µM of 32 ×10⁻⁶ cm/s. At P-gp (MDR1), the efflux ratio at 2 h, 1 µM was determined as 3.8.

On to `Cn1cnc2ccc(Oc3c(F)ccc(NS(=O)(=O)N4CC(F)C4)c3Cl)c(Cl)c2c1=O` [Example 120, N-(2-chloro-3-((5-chloro-3-methyl-4-oxo-3,4-dihydroquinazolin-6-yl)oxy)-4-fluorophenyl)-3-fluoroazetidine-1-sulfonamide], for which the pIC50 in series [1] (setting [3]) was 8.70; in the series on A375 cells, 8.40; with H1755 cells it was 7.16. In addition, the Papp at 2 h, 1 µM in series [2] was found to be 30 ×10⁻⁶ cm/s. The efflux ratio at 2 h, 1 µM on P-gp (MDR1) was found to be 3.8.

In the case of `COCC1CN(S(=O)(=O)Nc2ccc(F)c(Nc3ccc4ncn(C)c(=O)c4c3Cl)c2Cl)C1` [Example 132, N-(2-chloro-3-((5-chloro-3-methyl-4-oxo-3,4-dihydroquinazolin-6-yl)amino)-4-fluorophenyl)-3-(methoxymethyl)azetidine-1-sulfonamide trifluoroacetate], the figures for the pIC50 (in series [1] (setting [3]); in the series on A375 cells; in the series with H1755 cells) were 7.89, 8.52 and 7.48, respectively. Also, the apparent permeability (Papp) at 2 h, 1 µM in series [2] was found to be 36 ×10⁻⁶ cm/s. Moreover, at P-gp (MDR1), the efflux ratio at 2 h, 1 µM amounted to 2.7.

Turning to `COCC1CN(S(=O)(=O)Nc2ccc(F)c(Nc3ccc4ncn(C)c(=O)c4c3F)c2Cl)C1` [Example 133, N-(2-chloro-4-fluoro-3-((5-fluoro-3-methyl-4-oxo-3,4-dihydroquinazolin-6-yl)amino)phenyl)-3-(methoxymethyl)azetidine-1-sulfonamide trifluoroacetate], the figures for the negative logarithm of the IC50 (pIC50) (in series [1] (setting [3]); with A375 cells; with H1755 cells) were 8.30, 9.00 and 7.96, respectively. This molecule had a Papp at 2 h, 1 µM in series [2] of 33 ×10⁻⁶ cm/s. Further, on P-gp (MDR1), the efflux ratio at 2 h, 1 µM came to 5.7.

As for `Cn1cnc2ccc(Nc3c(F)ccc(NS(=O)(=O)N4CC(COC(F)F)C4)c3Cl)c(F)c2c1=O` [Example 139, N-(2-chloro-4-fluoro-3-((5-fluoro-3-methyl-4-oxo-3,4-dihydroquinazolin-6-yl)amino)phenyl)-3-((difluoromethoxy)methyl)azetidine-1-sulfonamide trifluoroacetate], the results for the pIC50 (in series [1] (setting [3]); with A375 cells; with H1755 cells) were 8.40, 8.52 and 8.00, respectively. In series [2], this molecule yielded a Papp at 2 h, 1 µM of 32 ×10⁻⁶ cm/s. Further, the efflux ratio at 2 h, 1 µM on P-gp (MDR1) is 5.3.

For `Cc1c(Nc2c(F)ccc(NS(=O)(=O)N3CC(OC(F)F)C3)c2Cl)ccc2ncn(C)c(=O)c12` [Example 161, N-(2-chloro-3-((3,5-dimethyl-4-oxo-3,4-dihydroquinazolin-6-yl)amino)-4-fluorophenyl)-3-(difluoromethoxy)azetidine-1-sulfonamide], the pIC50 in series [1] (setting [3]) is 7.62; with A375 cells, 6.61. Moreover, the Papp at 2 h, 1 µM in series [2] was 27 ×10⁻⁶ cm/s. Moreover, the efflux ratio at 2 h, 1 µM came out at 1.9 at P-gp (MDR1) and 2.6 at BCRP.

As for `Cc1c(Nc2c(F)ccc(NS(=O)(=O)N3CC4(CC4)C3)c2Cl)ccc2ncn(C)c(=O)c12` [Example 163, N-(2-chloro-3-((3,5-dimethyl-4-oxo-3,4-dihydroquinazolin-6-yl)amino)-4-fluorophenyl)-5-azaspiro[2.3]hexane-5-sulfonamide trifluoroacetate], the pIC50 in series [1] (setting [3]) is 8.10; with A375 cells it was 6.75. The molecule further returned an apparent permeability coefficient (Papp) at 2 h, 1 µM in series [2] of 23 ×10⁻⁶ cm/s. The efflux ratio at 2 h, 1 µM on P-gp (MDR1) came out at 1.9; at BCRP it was 1.4.

The values above are taken from US12303509B2, “Compounds for the treatment of BRAF-associated diseases and disorders” (Pfizer Inc., priority 2020, dated 2025).
